Source: the NIST ThermoML archive (doi:10.1016/j.jct.2007.07.005)

Experiment: xn = mol fraction of the nth substance listed
Conditions: Fluid (supercritical or subcritical phases), vibrating tube

CCCCCO [pentan-1-ol] + O=C=O
Conditions	mass density [kg/m3]
332.96 K, 13004 kPa, x2 = 0.0816	798.35
332.96 K, 13052 kPa, x2 = 0.7274	804
332.96 K, 14008 kPa, x2 = 0.7274	808.02
332.96 K, 14029 kPa, x2 = 0.0816	799.18
332.96 K, 14991 kPa, x2 = 0.0816	799.97
332.96 K, 15033 kPa, x2 = 0.7274	812.1
332.96 K, 16004 kPa, x2 = 0.0816	800.75
332.96 K, 16033 kPa, x2 = 0.7274	815.82
332.96 K, 17014 kPa, x2 = 0.0816	801.55
332.96 K, 17034 kPa, x2 = 0.7274	819.37
332.96 K, 17988 kPa, x2 = 0.7274	822.59
332.96 K, 18018 kPa, x2 = 0.0816	802.33
332.96 K, 19024 kPa, x2 = 0.0816	803.1
332.96 K, 19059 kPa, x2 = 0.7274	826.03
332.96 K, 19981 kPa, x2 = 0.0816	803.83
332.96 K, 20008 kPa, x2 = 0.7274	828.96
332.96 K, 20999 kPa, x2 = 0.7274	831.94
332.96 K, 21024 kPa, x2 = 0.0816	804.62
332.96 K, 22023 kPa, x2 = 0.7274	834.87
332.96 K, 22057 kPa, x2 = 0.0816	805.42
332.96 K, 23004 kPa, x2 = 0.7274	837.6
332.96 K, 23012 kPa, x2 = 0.0816	806.12
332.96 K, 23961 kPa, x2 = 0.7274	840.19
332.96 K, 24007 kPa, x2 = 0.0816	806.87
332.96 K, 25043 kPa, x2 = 0.0816	807.63
333.01 K, 7029 kPa, x2 = 0.1347	794.28
333.01 K, 8022 kPa, x2 = 0.1347	795.19
333.01 K, 9011 kPa, x2 = 0.1347	796.07
333.01 K, 10005 kPa, x2 = 0.1347	796.96
333.01 K, 11019 kPa, x2 = 0.1347	797.85
333.01 K, 11162 kPa, x2 = 0.6054	813.27
333.01 K, 12017 kPa, x2 = 0.1347	798.71
333.01 K, 12048 kPa, x2 = 0.6054	815.29
333.01 K, 13025 kPa, x2 = 0.1347	799.58
333.01 K, 13037 kPa, x2 = 0.6054	817.51
333.01 K, 14019 kPa, x2 = 0.1347	800.43
333.01 K, 14041 kPa, x2 = 0.6054	819.75
333.01 K, 15000 kPa, x2 = 0.1347	801.26
333.01 K, 15073 kPa, x2 = 0.6054	822.01
333.01 K, 16013 kPa, x2 = 0.1347	802.1
333.01 K, 16020 kPa, x2 = 0.6054	824.01
333.01 K, 17014 kPa, x2 = 0.1347	802.91
333.01 K, 17032 kPa, x2 = 0.6054	826.08
333.01 K, 18011 kPa, x2 = 0.1347	803.75
333.01 K, 18043 kPa, x2 = 0.6054	828.09
333.01 K, 19014 kPa, x2 = 0.1347	804.55
333.01 K, 19023 kPa, x2 = 0.6054	830
333.01 K, 20028 kPa, x2 = 0.6054	831.92
333.01 K, 20029 kPa, x2 = 0.1347	805.36
333.01 K, 21007 kPa, x2 = 0.1347	806.13
333.01 K, 21051 kPa, x2 = 0.6054	833.82
333.01 K, 22021 kPa, x2 = 0.1347	806.92
333.01 K, 22023 kPa, x2 = 0.6054	835.61
333.01 K, 23026 kPa, x2 = 0.1347	807.74
333.01 K, 23040 kPa, x2 = 0.6054	837.43
333.01 K, 24005 kPa, x2 = 0.1347	808.5
333.01 K, 24066 kPa, x2 = 0.6054	839.22
333.01 K, 25039 kPa, x2 = 0.6054	840.93
333.01 K, 25049 kPa, x2 = 0.1347	809.32
342.76 K, 505 kPa, x2 = 0	776.31
342.76 K, 997 kPa, x2 = 0	776.77
342.76 K, 1995 kPa, x2 = 0	777.69
342.76 K, 3011 kPa, x2 = 0	778.59
342.76 K, 4012 kPa, x2 = 0	779.47
342.76 K, 5011 kPa, x2 = 0	780.34
342.76 K, 6011 kPa, x2 = 0	781.22
342.76 K, 7003 kPa, x2 = 0	782.03
342.76 K, 8015 kPa, x2 = 0	782.91
342.76 K, 9000 kPa, x2 = 0	783.73
342.76 K, 10019 kPa, x2 = 0	784.58
342.76 K, 11020 kPa, x2 = 0	785.4
342.76 K, 12002 kPa, x2 = 0	786.2
342.76 K, 13016 kPa, x2 = 0	787.02
342.76 K, 14024 kPa, x2 = 0	787.81
342.76 K, 15002 kPa, x2 = 0	788.59
342.76 K, 16007 kPa, x2 = 0	789.36
342.76 K, 17037 kPa, x2 = 0	790.15
342.76 K, 17988 kPa, x2 = 0	790.87
342.76 K, 19037 kPa, x2 = 0	791.66
342.76 K, 20003 kPa, x2 = 0	792.38
342.76 K, 21015 kPa, x2 = 0	793.14
342.76 K, 22019 kPa, x2 = 0	793.88
342.76 K, 23039 kPa, x2 = 0	794.62
342.76 K, 24027 kPa, x2 = 0	795.36
342.76 K, 25028 kPa, x2 = 0	796.1
342.84 K, 15024 kPa, x2 = 0.9757	576.16
342.84 K, 16006 kPa, x2 = 0.9757	609.2
342.84 K, 17033 kPa, x2 = 0.9757	637.26
342.84 K, 18023 kPa, x2 = 0.9757	659.89
342.84 K, 19028 kPa, x2 = 0.9757	679.62
342.84 K, 20027 kPa, x2 = 0.9757	696.58
342.84 K, 21039 kPa, x2 = 0.9757	711.98
342.84 K, 22011 kPa, x2 = 0.9757	725.1
342.84 K, 23016 kPa, x2 = 0.9757	737.54
342.87 K, 8048 kPa, x2 = 0.3624	796.26
342.87 K, 9023 kPa, x2 = 0.3624	797.49
342.87 K, 10006 kPa, x2 = 0.4651	797.4
342.87 K, 10022 kPa, x2 = 0.3624	798.77
342.87 K, 11004 kPa, x2 = 0.3624	799.97
342.87 K, 11022 kPa, x2 = 0.4651	799.24
342.87 K, 11991 kPa, x2 = 0.4651	801.02
342.87 K, 12013 kPa, x2 = 0.3624	801.19
342.87 K, 13001 kPa, x2 = 0.4651	802.82
342.87 K, 13035 kPa, x2 = 0.3624	802.37
342.87 K, 13990 kPa, x2 = 0.3624	803.48
342.87 K, 13990 kPa, x2 = 0.4651	804.53
342.87 K, 14011 kPa, x2 = 0.7274	784.26
342.87 K, 14992 kPa, x2 = 0.7274	789
342.87 K, 15018 kPa, x2 = 0.3624	804.64
342.87 K, 15036 kPa, x2 = 0.4651	806.31
342.87 K, 16009 kPa, x2 = 0.3624	805.73
342.87 K, 16014 kPa, x2 = 0.4651	807.95
342.87 K, 16025 kPa, x2 = 0.7274	793.59
342.87 K, 17000 kPa, x2 = 0.3624	806.82
342.87 K, 17004 kPa, x2 = 0.4651	809.55
342.87 K, 17006 kPa, x2 = 0.7274	797.68
342.87 K, 18005 kPa, x2 = 0.7274	801.59
342.87 K, 18017 kPa, x2 = 0.4651	811.18
342.87 K, 18021 kPa, x2 = 0.3624	807.94
342.87 K, 19019 kPa, x2 = 0.4651	812.75
342.87 K, 19032 kPa, x2 = 0.7274	805.44
342.87 K, 19036 kPa, x2 = 0.3624	809.03
342.87 K, 19983 kPa, x2 = 0.7274	808.81
342.87 K, 20012 kPa, x2 = 0.3624	810.06
